According to article PMC6094047 (Antiviral Research, 2018):
Values joined by “and” are separate entries in the source; they are usually repeats but may differ in a detail not shown here. Identical values can stand only once. Like-named read-outs stand apart in the source and are kept apart here.

How the values were obtained:
[1] = tested on: A(H1N1)pdm09 virus neuraminidase (NA); format: biochemical, influenza A(H1N1)pdm09 virus
[2] = tested on: B/Victoria-lineage virus neuraminidase (NA); format: biochemical, influenza B/Victoria-lineage virus
[3] = tested on: A(H1N1)pdm09 virus neuraminidase (NA); conditions: cited from earlier work; for fold increases in IC50s compared to the mean IC50s: previously described A(H1N1)pdm09 virus with S110F AAS, ref Okomo-Adhiambo et al., 2014
[4] = tested on: A(H3N2) virus neuraminidase (NA); format: biochemical, influenza A(H3N2) virus
[5] = A(H1N1)pdm09 NA H275Y, ref WHO-AVWG NAI substitution table

[H]/N=C(\N)N[C@H]1C=C(C(=O)O)O[C@@H]([C@H](OC)[C@H](O)CO)[C@@H]1NC(C)=O [Laninamivir]
IC50 fold-change compared to reference median IC50 values [1]: 1.5–3.4 (8) fold and 2.9 fold
Fold change in IC50 [2]: 1.8 fold and 2.2 fold
inhibition phenotype associated with NA AAS (NI/RI/HRI) [3]: HRI (key: normal inhibition (NI) (type A viruses <10-fold; reduced inhibition (RI) (type A viruses 10- to 100-fold; highly reduced inhibition (HRI) (type A viruses >100-fold)

CCOC(=O)C1=C[C@@H](OC(CC)CC)[C@H](NC(C)=O)[C@@H](N)C1 [Oseltamivir]
Fold change in IC50 [4]: 14 fold
inhibition phenotype (NI/RI/HRI) [4]: RI (key: normal inhibition (NI) (type A viruses <10-fold; reduced inhibition (RI) (type A viruses 10- to 100-fold; highly reduced inhibition (HRI) (type A viruses >100-fold)
Fold change in IC50 [2]: 4.1 fold and 2.9 fold
inhibition phenotype associated with NA AAS (NI/RI/HRI) [3, 5]: HRI (highly reduced inhibition (HRI) (type A viruses >100-fold)
inhibition phenotype associated with NA AAS (NI/RI/HRI) [3]: HRI (key: normal inhibition (NI) (type A viruses <10-fold; reduced inhibition (RI) (type A viruses 10- to 100-fold; highly reduced inhibition (HRI) (type A viruses >100-fold)
fold increases in IC50s compared to the mean IC50s [3]: 3–6 fold

CCC(CC)[C@H](NC(C)=O)[C@@H]1[C@H](O)[C@@H](C(=O)O)C[C@H]1N=C(N)N [Peramivir]
Fold change in IC50 [2]: 30 fold and 26 fold
inhibition phenotype associated with NA AAS (NI/RI/HRI) [3, 5]: HRI (highly reduced inhibition (HRI) (type A viruses >100-fold)

CC(=O)N[C@H]1[C@H]([C@H](O)[C@H](O)CO)OC(C(=O)O)=C[C@@H]1N=C(N)N [Zanamivir]
Fold change in IC50 [4]: 11 fold and 8.1 fold and 9.1 fold
inhibition phenotype (NI/RI/HRI) [4]: RI (key: normal inhibition (NI) (type A viruses <10-fold; reduced inhibition (RI) (type A viruses 10- to 100-fold; highly reduced inhibition (HRI) (type A viruses >100-fold)
Fold change in IC50 [2]: 1.4 fold and 2.0 fold
fold increases in IC50s compared to the mean IC50s [3]: 3–6 fold
